For 72 compounds, IC50 results are on record in patent US20140349970A1 (ABBVIE INC., priority 2009, published 2014).

The first assay concerns the target T1, Syk catalytic domain (aa 356-635 with a C-terminal His-tag) (Homo sapiens, UniProt P43405).
T1 construct: His-tag (C); made in house
Briefly: In vitro Syk kinase activity measured by trFRET, Syk catalytic domain. It counts as biochemical.
Settings: not given
The gist of the method:
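Kinase reaction: 0.14 nM His-tagged catalytic domain, 0.2 μM biotin-TYR1 peptide, 0.001 mM ATP in 50 mM MOPSO pH 6.5 with MgCl2, MnCl2, DTT, BSA, vanadate, ~60 min at rt, then EDTA quench. Phosphoproduct detected by trFRET (Eu anti-pTyr antibody/streptavidin-APC, 665 nm emission); IC50 from signal in linear range.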
For orientation: IC50 means the concentration at which inhibition is half-maximal. Read a low IC50 as greater potency in that assay. Regarding `COc1ccc(-c2nc(C)n3c2cnc2[nH]ccc23)cc1OC` [AC.1.41], the IC50 was < 100 nM.

`CC(C)(O)c1ccc(-c2nc(CCCN)n3c2cnc2[nH]ccc23)cc1` [AC.5.5] gave an IC50 of 100 to 1000 nM.

In turn, `CN(C)C(=O)c1ccc(-c2nc(C3CCCCC3)n3c2cnc2[nH]ccc23)cc1` [AC.3.22] had an IC50 of 100 to 1000 nM.

Consider `COc1ccc(-c2nc(CN3CCNCC3)n3c2cnc2[nH]ccc23)cc1` [T.3.1.4], for which the IC50 is 100 to 1000 nM.

As for `CC(C)(O)c1ccc(-c2nc(C3CC3)n3c2cnc2[nH]ccc23)cc1` [AC.5.8], the IC50 is < 100 nM.

Compound `CC(C)(O)c1ccc(-c2nc([C@@H]3CCNC3)n3c2cnc2[nH]ccc23)cc1` [P.3.1.10] displayed an IC50 of 100 to 1000 nM.

`Cc1c(-c2ccc(C(C)(C)O)cc2)[nH]c2ncc3nncn3c12` [S.1.4] gave an IC50 of 100 to 1000 nM.

With `CCCNC(=O)c1ccc(-c2ncn3c2cnc2[nH]ccc23)cc1` [AC.4.7], the IC50 lay in the range of 100 to 1000 nM.

Compound `Cc1nc(-c2ccc(CN3CCOCC3)cc2)c2cnc3[nH]ccc3n12` [AH.1.1] yielded a 50% inhibitory concentration (IC50) of 100 to 1000 nM.

`c1cc(-c2nc(C3CCCCC3)n3c2cnc2[nH]ccc23)ccn1` [AC.3.23] gave an IC50 of 100 to 1000 nM.

On to `CC(C)(O)c1ccc(-c2nc(CN3CCC(N)CC3)n3c2cnc2[nH]ccc23)cc1` [P.3.1.8], for which the IC50 fell in the range of 100 to 1000 nM.

Regarding `Cc1nc(-c2ccc(C(C)(C)O)c(F)c2)c2cnc3[nH]ccc3n12` [AC.1.20], the IC50 was < 100 nM.

For `CC1CN(Cc2nc(-c3ccc(C(C)(C)O)cc3)c3cnc4[nH]ccc4n23)CCN1` (stereo not drawn) [P.3.1.13], the IC50 was in the range of 100 to 1000 nM.

`Fc1ccc(-c2nc(C3CCCCC3)n3c2cnc2[nH]ccc23)cc1` [AC.3.2] showed a half-inhibitory concentration (IC50) of 1000 to 10000 nM.

`Cc1nc(-c2ccc(C(C)(C)O)s2)c2cnc3[nH]ccc3n12` [S.1.11]: the IC50 is < 100 nM.

`COc1ccc(-c2ncn3c2cnc2[nH]cc(C4=CCNCC4)c23)cc1` [P.3.1.12]: the IC50 was 1000 to 10000 nM.

As to `COc1ccc(-c2nc(C)n3c2cnc2[nH]ccc23)cc1C` [AC.1.37], the IC50 was in the range of 100 to 1000 nM.

`Cc1nc(-c2ccc(CO)cc2)c2cnc3[nH]ccc3n12` [AC.1.34] had an IC50 of 100 to 1000 nM.

With `Cn1cc(-c2cc3c(ncc4cnn(C)c43)[nH]2)c2ccc(C(=O)O)cc21` [AN.1.3], the IC50 is < 100 nM.

Regarding `Cc1ccc(-c2nc(C3CCCCC3)n3c2cnc2[nH]ccc23)cc1` [AC.3.32], the IC50 was 100 to 1000 nM.

`COc1ncc(-c2nc(C)n3c2cnc2[nH]ccc23)cn1` [AC.1.23] showed an IC50 of 1000 to 10000 nM.

Take `CC(C)(O)c1ccc(-c2nc(CN)n3c2cnc2[nH]ccc23)cc1` [AC.5.6, 2-(4-(1-(Aminomethyl)-6H-imidazo[1,5-a]pyrrolo[2,3-e]pyrazin-3-yl)phenyl)propan-2-ol]: the IC50 was in the range of 1000 to 10000 nM.

Staying with this assay, now noted: Syk catalytic domain (aa 356-635), trFRET, 0.001 mM ATP.
In the case of `CS(=O)(=O)c1ccc(-n2c(=O)n(C3CCCCC3)c3c4cc[nH]c4ncc32)cc1` [M.1.24], the IC50 is > 10000 nM.

As for `Cn1ncc2cnc3[nH]c(-c4cccc(C(=O)NCCN5CCOCC5)c4)cc3c21` [N.1.6], the IC50 is < 100 nM.

In the case of `COc1ccc2c(c1)c(-c1cc3c(ncc4cnc(C5CCCOC5)n43)[nH]1)cn2C` (stereo not drawn) [M.1, 7-(5-Methoxy-1-methyl-1H-indol-3-yl)-1-(tetrahydro-2H-pyran-3-yl)-6H-imidazo[1,5-a]pyrrolo[2,3-e]pyrazine], the IC50 is < 100 nM.

As for `CN(C)c1nc(-c2ccc(C(C)(C)O)cc2)c2cnc3[nH]ccc3n12` [N.1.59], the IC50 is < 100 nM.

In turn, `CN1CCN(Cc2nc(-c3ccc(C(C)(C)O)cc3)c3cnc4[nH]ccc4n23)CC1` [N.1.96] came in with an IC50 of 1000 to 10000 nM.

As to `Cn1cc(-c2cc3c(ncc4cnn(C)c43)[nH]2)c2cc(F)ccc21` [N.1.17], the 50% inhibitory concentration (IC50) is < 100 nM.

For `CS(=O)(=O)c1cccc(-c2cc3c(ncc4cnc([C@@H]5CC[C@H](N)C5)n43)[nH]2)c1` (relative stereo) [T.1.1.5, (cis)-3-(7-(3-(Methylsulfonyl)phenyl)-6H-imidazo[1,5-a]pyrrolo[2,3-e]pyrazin-1-yl)cyclopentanamine], the IC50 was 100 to 1000 nM.

In the case of `COc1ccc2c(c1)c(-c1cc3c(ncc4cnn(C)c43)[nH]1)cn2CC(=O)N1CCOCC1` [N.2.9], the IC50 is < 100 nM.

`COc1ccc2c(c1)c(-c1cc3c(ncc4cnc(N5CCCC5)n43)[nH]1)cn2C` [M.1.17]: the IC50 is < 100 nM.

For the compound `CCc1c[nH]c2ncc3c(-c4cc(OC)c(OC)c(OC)c4)nn(C)c3c12` [N.1.77], the IC50 is 1000 to 10000 nM.

As to `CC(C)(O)c1ccc(-c2nc([C@@H]3CCCC[C@H]3CN)n3c2cnc2[nH]ccc23)cc1` (racemic) [N.1.78], the IC50 fell in the range of 100 to 1000 nM.

Take `CC(=O)NCc1cccc(-c2cc3c(ncc4cnn(C)c43)[nH]2)c1` [N.1.3]: the half-inhibitory concentration (IC50) was < 100 nM.

For the compound `CN(C)CC(=O)NCc1cccc(-c2cc3c(ncc4cnn(C)c43)[nH]2)c1` [J.1.1.1], the IC50 was 100 to 1000 nM.

Regarding `CCc1c[nH]c2ncc3c(-c4ccc(CO)cc4)nn(C)c3c12` [N.1.71], the IC50 was 100 to 1000 nM.

Take `CC(C)n1cc(-c2cc3c(ncc4cnn(C)c43)[nH]2)c2ccccc21` [N.1.82]: the IC50 lay within 100 to 1000 nM.

In the case of `Cn1ncc2cnc3[nH]c(-c4cccc(CC(=O)NCCN5CCOCC5)c4)cc3c21` [N.1.12], the IC50 lay in the range of 100 to 1000 nM.

As to `COc1ccc(-c2nc(C)n3c2cnc2[nH]ccc23)cc1C(N)=O` [J.1.7.4], the IC50 is 100 to 1000 nM.

Turning to `CCc1c[nH]c2ncc3c(-c4cccnc4)nn(C)c3c12` [N.1.75], the IC50 is 1000 to 10000 nM.

With `CC(C)(O)c1ccc(-c2ncn3c2cnc2[nH]cc(CO)c23)cc1` [N.1.110], the IC50 was 100 to 1000 nM.

`CS(=O)(=O)c1ccc(-c2nc(CC3CNCCO3)n3c2cnc2[nH]ccc23)cc1` (stereo not drawn) [N.1.94] showed an IC50 of 100 to 1000 nM.

For `Cn1ncc2cnc3[nH]c(-c4ccc(OCCCN5CCOCC5)cc4)cc3c21` [N.2.5], the IC50 was < 100 nM.

Turning to `COc1ccc2c(c1)c(-c1cc3c(ncc4cnc(CCCN)n43)[nH]1)cn2C` [T.1.1.3], the IC50 was < 100 nM.

As for `COc1ccc(-c2nc(C(=O)NCCO)n3c2cnc2[nH]ccc23)cc1` [J.1.2.1], the IC50 was < 100 nM.

Turning to `CCc1c(-c2ccc(C(C)(C)O)cc2)[nH]c2ncc3cnc(C)n3c12` [M.1.9], the half-maximal inhibitory concentration (IC50) fell in the range of 100 to 1000 nM.

The compound `COc1ccc(-c2nnn3c2cnc2[nH]ccc23)cc1` [N.1.107] displayed an IC50 of 100 to 1000 nM.

Regarding `CC(C)(O)c1ccc(-c2nc(C3CCCNC3)n3c2cnc2[nH]ccc23)cc1` (stereo not drawn) [D.2.1], the IC50 is < 100 nM.

In turn, `CN(C)CC1CCN(c2nc(-c3ccc(S(C)(=O)=O)cc3)c3cnc4[nH]ccc4n23)C1` (stereo not drawn) [N.1.64] had a 50% inhibitory concentration (IC50) of 1000 to 10000 nM.

For `Cn1ncc2cnc3[nH]c(-c4cccc(C(=O)N5CCCC5)c4)cc3c21` [N.1.8], the IC50 was in the range of 100 to 1000 nM.

Consider `COc1ccc2c(c1)c(-c1cc3c(ncc4cnc(N(C)C)n43)[nH]1)cn2C` [M.1.8], for which the IC50 was < 100 nM.

As for `Cn1cc(-c2cc3c(ncc4cnn(C)c43)[nH]2)c2ccc(C(=O)NC(C)(C)CO)cc21` [J.1.4.3], the IC50 was < 100 nM.

In the case of `CS(=O)(=O)c1cccc(-c2cc3c(ncc4cnc(C(F)(F)F)n43)[nH]2)c1` [M.1.2], the IC50 is 100 to 1000 nM.

`CC(=O)c1ccc(-c2cc3c(ncc4cnc(C(=O)N5CCCC5)n43)[nH]2)cc1` [J.1.5.1]: the 50% inhibitory concentration (IC50) was < 100 nM.

For `COc1ccc2c(c1)c(-c1cc3c(ncc4cnn(C)c43)[nH]1)cn2CC(O)CO` (stereo not drawn) [N.1.26], the IC50 was < 100 nM.

Compound `CCc1c[nH]c2ncc3c(-c4ccc(C(=O)NC5CC5)cc4)nn(C)c3c12` [N.1.70] yielded a concentration for half-maximal inhibition (IC50) of 100 to 1000 nM.

Take `COc1ccc(-c2nc(CCN(C)C)n3c2cnc2[nH]ccc23)cc1` [N.1.105]: the IC50 is 1000 to 10000 nM.

With `Cn1cc(-c2cc3c(ncc4cnn(C)c43)[nH]2)c2cc(C(C)(C)O)ccc21` [N.1.101], the concentration for half-maximal inhibition (IC50) is < 100 nM.

For `Cn1ncc2cnc3[nH]c(-c4cccc(S(N)(=O)=O)c4)cc3c21` [N.1.13], the IC50 is < 100 nM.

With `CCc1c[nH]c2ncc3c(-c4ccc(OC)c(F)c4)nn(C)c3c12` [N.1.67], the IC50 was in the range of 100 to 1000 nM.

Consider `CCc1c(-c2ccc(C(C)(C)O)cc2)[nH]c2ncc3nccn3c12` [Example 4, 2-(4-(1-Ethyl-3H-imidazo[1,2-a]pyrrolo[2,3-e]pyrazin-2-yl)phenyl)propan-2-ol], for which the IC50 was in the range of 100 to 1000 nM.

`COc1ccc(-c2nc(CNC3CCCCC3O)n3c2cnc2[nH]ccc23)cc1` (stereo not drawn) [N.1.93] displayed an IC50 of 1000 to 10000 nM.

The compound `COC(=O)Cn1cc(-c2nc(C)n3c2cnc2[nH]ccc23)cn1` [Example 12, Methyl 2-(4-(1-methyl-6H-imidazo[1,5-a]pyrrolo[2,3-e]pyrazin-3-yl)-1H-pyrazol-1-yl)acetate] registered an IC50 of 100 to 1000 nM.

Turning to `COc1ccc(-c2nc(C)n3c2cnc2[nH]ccc23)cc1` [N.1.54], the IC50 was < 100 nM.

In turn, `Cc1ccc(-c2cc3c(ncc4cnc(N5CCCC5)n43)[nH]2)cc1` [M.1.18] registered an IC50 of 100 to 1000 nM.

In turn, `COc1ccc(-c2nc(CO)n3c2cnc2[nH]ccc23)cc1` [N.1.113] had an IC50 of 100 to 1000 nM.

With `CCc1c[nH]c2ncc3c(-c4ccc(C(C)(C)O)cc4)nn(C)c3c12` [N.1.60], the 50% inhibitory concentration (IC50) was in the range of 1000 to 10000 nM.

In the case of `CCc1c(-c2ccc3c(ccn3C)c2)[nH]c2ncc3cnn(C)c3c12` [N.1.15], the IC50 was 1000 to 10000 nM.

Consider `O=C(O)/C=C/c1nc(C2CCCCC2)n2c1cnc1[nH]ccc12` [Example 3, (E)-3-(1-Cyclohexyl-6H-imidazo[1,5-a]pyrrolo[2,3-e]pyrazin-3-yl)acrylic acid], for which the IC50 fell in the range of 100 to 1000 nM.

Compound `CCc1c[nH]c2ncc3c(-c4cnn(C)c4)nn(C)c3c12` [N.1.76] had an IC50 of 100 to 1000 nM.

`Cc1ccc(-c2cc3c(ncc4cnn(C)c43)[nH]2)c(C)c1` [N.1.47] displayed an IC50 of 1000 to 10000 nM.

In turn, `COCCCNC(=O)Cc1cccc(-c2cc3c(ncc4cnn(C)c43)[nH]2)c1` [N.1.11] had an IC50 of 100 to 1000 nM.
